From ChEMBL document CHEMBL1201862, “PubChem BioAssay data set” (2004) come the findings set out here.

Molecules are shown by their SMILES.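 In this assay, cells in 96-well plates receive the compound at five concentrations for 48 hours. Endpoints are linearly interpolated between the surrounding concentrations. The concentration for 50% growth inhibition is given as GI50.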 Activity calls are given as the source filed them. No stated cut-off is given here; in the data, active = GI50 up to about 1.1 µM and inactive = higher. A value given as a limit tells only on which side of the number the result lay.

Some test systems named below: NCI-H23; ACHN; OVCAR-5; SK-OV-3; NCI-H460; MDA-MB-435; DU-145; SN12C; Hs-578T; SF-539; UACC-62; SR; SF-268; OVCAR-4; SNB-19; MCF7; K562; HCT-15; UACC-257; M14.
Experiment in all cases: DTP human tumour cell line panel, 48 h

As a reminder, the GI50 is the concentration at which growth is held to half of that of the control. Regarding `C=C=C(C)[Si](C)(C)C`, the GI50 in the experiment with NCI-H23, with ACHN, in the experiment with OVCAR-5, with SK-OV-3, in the experiment with NCI-H460 and in the experiment with MDA-MB-435 was > 100 µM (inactive) in each case. Moreover, the GI50 with DU-145, in the experiment on SN12C, in the experiment with Hs-578T, in the experiment on SF-539, in the experiment with UACC-62 and with SR was > 100 µM (inactive) each time. Also, the GI50 is > 100 µM (inactive) in the experiment with SF-268; > 100 µM (inactive) in the experiment on OVCAR-4; > 100 µM (inactive) in the experiment on SNB-19; > 100 µM (inactive) in the experiment on MCF7; > 100 µM (inactive) in the experiment with K562; above 100 µM in the experiment with HCT-15. In addition, the GI50 in the experiment with UACC-257 and in the experiment on M14 was > 100 µM (inactive) throughout.

Regarding `CCOC(=O)/C(C#N)=C/c1ccc(CO)o1`, the GI50 in the experiment on NCI-H23, with ACHN, in the experiment on OVCAR-5, with SK-OV-3, with NCI-H460 and with MDA-MB-435 was > 100 µM (inactive) each time. In addition, the GI50 with DU-145, with SN12C, in the experiment on Hs-578T, in the experiment on SF-539, in the experiment on UACC-62 and in the experiment on SR was > 100 µM (inactive) in each case. Also, the GI50 with SF-268 was > 100 µM (inactive); in the experiment with OVCAR-4, > 100 µM (inactive); in the experiment on SNB-19 it was > 100 µM (inactive); in the experiment with MCF7, > 100 µM (inactive); in the experiment on K562, > 100 µM (inactive); in the experiment with HCT-15 it was above 100 µM. The GI50 with UACC-257 and in the experiment with M14 was > 100 µM (inactive) throughout.

As for `NCCSc1nc(-c2ccccc2)c(-c2ccccc2)o1`, the GI50 in the experiment on NCI-H23 is 17.7 µM (inactive); in the experiment on ACHN it was > 100 µM (inactive); in the experiment with OVCAR-5, > 100 µM (inactive); in the experiment with SK-OV-3 it was 73.3 µM (inactive); in the experiment on NCI-H460 it was 65.9 µM (inactive); with MDA-MB-435, > 100 µM (inactive). Further, the GI50 with DU-145 was > 100 µM (inactive); with SN12C, 77.8 µM (inactive); in the experiment with Hs-578T, > 100 µM (inactive); with SF-539, > 100 µM (inactive); with UACC-62 it was > 100 µM (inactive); with SR, 7.38 µM (inactive). Moreover, the GI50 was > 100 µM (inactive) in the experiment on SF-268; 46.7 µM (inactive) in the experiment on OVCAR-4; > 100 µM (inactive) with SNB-19; > 100 µM (inactive) with MCF7; > 100 µM (inactive) in the experiment with K562; above 100 µM in the experiment on HCT-15. Moreover, the figures for the GI50 with UACC-257 and in the experiment with M14 were 41.2 µM (inactive) and > 100 µM (inactive), respectively.

As for `COc1ccc2cc(CNCCOCCOCCNCc3ccc4cc(OC)ccc4c3)ccc2c1`, the GI50 in the experiment on NCI-H23 was 1.5 µM (inactive); in the experiment on ACHN, 1.6 µM (inactive); in the experiment with OVCAR-5, 1.85 µM (inactive); in the experiment on SK-OV-3, 1.79 µM (inactive); with NCI-H460, 0.655 µM (active); with MDA-MB-435, 0.494 µM (active). In addition, the GI50 with DU-145 was 1.6 µM (inactive); with SN12C, 1.72 µM (inactive); in the experiment with Hs-578T, 1.64 µM (inactive); with SF-539, 1.54 µM (inactive); in the experiment with UACC-62, 1.78 µM (inactive); in the experiment with SR, 0.251 µM (active). Also, the GI50 in the experiment on SF-268 is 1.42 µM (inactive); in the experiment with OVCAR-4, 1.92 µM (inactive); in the experiment with SNB-19 it was 1.49 µM (inactive); in the experiment with MCF7 it was 0.887 µM (active); in the experiment with K562 it was 0.118 µM (active); in the experiment on HCT-15, 0.527 µM. Also, the GI50 in the experiment on UACC-257 is 1.58 µM (inactive); with M14, 0.26 µM (active).

On to `O=C(O)C(Cc1c[nH]c2ccccc12)C(=O)NO` (stereo not given), for which the GI50 in the experiment on NCI-H23, in the experiment on ACHN, in the experiment with OVCAR-5, in the experiment on SK-OV-3, with NCI-H460 and in the experiment on MDA-MB-435 was > 100 µM (inactive) throughout. The GI50 with DU-145, in the experiment with SN12C, in the experiment with Hs-578T, in the experiment on SF-539, in the experiment with UACC-62 and in the experiment on SR was > 100 µM (inactive) in each case. For the same compound, the GI50 in the experiment with SF-268 is > 100 µM (inactive); in the experiment with OVCAR-4 it was > 100 µM (inactive); in the experiment with SNB-19 it was > 100 µM (inactive); in the experiment on MCF7 it was > 100 µM (inactive); in the experiment on K562, > 100 µM (inactive); with HCT-15, above 100 µM. Also, the GI50 in the experiment with UACC-257 and with M14 was > 100 µM (inactive) each time.

`CCCCCC(=O)Nc1[nH]cnc1C(N)=O`: the GI50 in the experiment on NCI-H23, in the experiment on ACHN, in the experiment with OVCAR-5, in the experiment with SK-OV-3, with NCI-H460 and in the experiment with MDA-MB-435 was > 100 µM (inactive) throughout. For the same compound, the GI50 with DU-145, in the experiment on SN12C, in the experiment with Hs-578T, in the experiment with SF-539, with UACC-62 and in the experiment with SR was > 100 µM (inactive) throughout. Also, the GI50 in the experiment with SF-268 was > 100 µM (inactive); in the experiment on OVCAR-4, > 100 µM (inactive); with SNB-19 it was > 100 µM (inactive); with MCF7, > 100 µM (inactive); in the experiment with K562, > 100 µM (inactive); in the experiment on HCT-15, above 100 µM. Also, the GI50 with UACC-257 and in the experiment with M14 was > 100 µM (inactive) in each case.
